Measured values published in patent publication EP2799881A1, “Method for the determination of the presence of an antibiotic in a fluid” (DSM IP Assets B.V., priority 2013, dated 2014).

System: test organism
Test: Microbial growth inhibition test (DSM Delvotest® SP-NT), detection limit of antibiotics in spiked milk, with tomatidine added to the test medium
Format: cell-based
Details: 64 °C
Procedure: As a reference, a commercially available test system without any added steroidal glycoalkaloid aglycone (DSM Delvotest® SP-NT, plates containing 8 x 12 test wells) was used. In addition, four different test systems were prepared by modifying the reference test by adding the steroidal glycoalkaloid aglycone tomatidine to the test medium in a final concentration of 50 ppb, 100 ppb, 500 ppb or 2000 ppb. The detection limits of two different antibiotics were measured in the reference test and in the tests with modified medium containing different concentrations of tomatidine. The antibiotics that were measured were streptomycin and dihydrostreptomycin (DH-streptomycin) (both belonging to the aminoglycoside antibiotic family). Five different concentrations of each antibiotic (see Table 1) were measured. Hundred microliter antibiotic-free milk or hundred microliter milk spiked with the respective concentrations of antibiotic was added to the test medium (170 µl) and incubated at 64 °C in a water bath. The tests were visually determined at the point in time where a sample without antibiotic had changed colour from purple to yellow. At this point, the plates were cooled in an ice bath for 5 minutes. The cooled plates were scanned on a Delvo® scanner. The colour of each well was expressed as a Z-value; a purple colour gives rise to a positive Z-value, while a yellow colour has a negative Z-value. The Z-value of test results with samples without antibiotic is typically -5 < Z < -10. Detailed description of the scanning technology and the expression of the colour in Z-values are described in WO 03/033728. For the determination of the detection limit for each antibiotic, a dose-response function (Z-value versus concentration of antibiotic) was constructed. The detection limit is defined as the antibiotic concentration where the S-shaped dose-response function has a Z-value equal to the cut-off value.

[1] = Tomatidine concentration in test 0 ppb (reference Delvotest® SP-NT), cut-off Z-value 0
[2] = Tomatidine concentration in test 50 ppb, cut-off Z-value 0, tomatidine 50 ppb in test
[3] = Tomatidine concentration in test 100 ppb, cut-off Z-value 0, tomatidine 100 ppb in test
[4] = Tomatidine concentration in test 500 ppb, cut-off Z-value 0, tomatidine 500 ppb in test
[5] = Tomatidine concentration in test 2000 ppb, cut-off Z-value 0, tomatidine 2000 ppb in test

Row | Structure (SMILES) | Detection limit [1] | Detection limit [2] | Detection limit [3] | Detection limit [4] | Detection limit [5]
1 | [H]/N=C(/N)N[C@H]1[C@H](O)[C@@H](O)[C@H](O[C@@H]2O[C@@H](C)[C@](O)(C=O)[C@H]2O[C@@H]2O[C@@H](CO)[C@H](O)[C@@H](O)[C@@H]2NC)[C@@H](N/C(N)=N\[H])[C@@H]1O [Streptomycin, streptomycin] | 2005 ppb | 1523 ppb | 398 ppb | 295 ppb | 79 ppb
2 | CN[C@@H]1[C@H](O[C@H]2[C@H](O[C@H]3[C@H](O)[C@@H](O)[C@H](NC(=N)N)[C@@H](O)[C@@H]3NC(=N)N)O[C@@H](C)[C@]2(O)CO)O[C@@H](CO)[C@H](O)[C@H]1O [DH-streptomycin, dihydrostreptomycin] | 1471 ppb | 1075 ppb | 365 ppb | 150 ppb | 115 ppb
